According to ChEMBL document CHEMBL3044708, “The trifluoromethyl transformation synthesis, crystal structure and insecticidal activities of novel 2-pyrrolecarboxamide and 2-pyrrolecarboxlate” (2012):

Assays:
Type in all cases: functional
Tetranychus cinnabarinus [1] = test: Acaricidal activity against Tetranychus cinnabarinus (carmine spider mite) larvae assessed as mortality at 200 mg/L
Mythimna separata [2] = test: Insecticidal activity against Mythimna separata (Oriental armyworm) assessed as mortality at 200 mg/L
Tetranychus cinnabarinus [3] = test: Acaricidal activity against Tetranychus cinnabarinus (carmine spider mite) assessed as mortality at 200 mg/L
Tetranychus cinnabarinus [4] = test: Acaricidal activity against Tetranychus cinnabarinus (carmine spider mite) eggs assessed as mortality at 200 mg/L; details: Egg
Mythimna separata [5] = test: Insecticidal activity against Mythimna separata (Oriental armyworm) assessed as mortality at 50 mg/L
Mythimna separata [6] = test: Insecticidal activity against Mythimna separata (Oriental armyworm) assessed as mortality at 100 mg/L
Mythimna separata [7] = test: Insecticidal activity against Mythimna separata (Oriental armyworm) assessed as mortality at 25 mg/L
Tetranychus cinnabarinus [8] = test: Acaricidal activity against Tetranychus cinnabarinus (carmine spider mite) assessed as mortality at 100 mg/L
Tetranychus cinnabarinus [9] = test: Acaricidal activity against Tetranychus cinnabarinus (carmine spider mite) larvae assessed as mortality at 100 mg/L
Tetranychus cinnabarinus [10] = test: Acaricidal activity against Tetranychus cinnabarinus (carmine spider mite) eggs assessed as mortality at 100 mg/L; details: Egg

## N#Cc1c(-c2ccc(Cl)cc2)[nH]c(C(=O)NC2CCCCC2)c1Br
Tetranychus cinnabarinus [1]
  mortality at 200 µg/mL: 0%
Mythimna separata [2]
  mortality at 200 µg/mL: 80%
Tetranychus cinnabarinus [3]
  mortality at 200 µg/mL: 0%
Tetranychus cinnabarinus [4]
  mortality at 200 µg/mL: 0%

## COC(=O)c1[nH]c(-c2ccc(Cl)cc2)c(C#N)c1Br
Tetranychus cinnabarinus [1]
  mortality at 200 µg/mL: 40%
Mythimna separata [5]
  mortality at 50 µg/mL: 40%
Mythimna separata [6]
  mortality at 100 µg/mL: 100%
Mythimna separata [2]
  mortality at 200 µg/mL: 100%
Tetranychus cinnabarinus [3]
  mortality at 200 µg/mL: 60%
Mythimna separata [7]
  mortality at 25 µg/mL: 0%
Tetranychus cinnabarinus [4]
  mortality at 200 µg/mL: 0%

## N#Cc1cc(C(=O)Nc2ccc(C(F)(F)F)cc2)[nH]c1-c1ccc(Cl)cc1
Tetranychus cinnabarinus [1]
  mortality at 200 µg/mL: 0%
Mythimna separata [2]
  mortality at 200 µg/mL: 0%
Tetranychus cinnabarinus [3]
  mortality at 200 µg/mL: 0%
Tetranychus cinnabarinus [4]
  mortality at 200 µg/mL: 0%

## CCN(CC)C(=O)c1[nH]c(-c2ccc(Cl)cc2)c(C#N)c1Br
Tetranychus cinnabarinus [1]
  mortality at 200 µg/mL: 0%
Mythimna separata [2]
  mortality at 200 µg/mL: 0%
Tetranychus cinnabarinus [3]
  mortality at 200 µg/mL: 0%
Tetranychus cinnabarinus [4]
  mortality at 200 µg/mL: 0%

## N#Cc1c(-c2ccc(Cl)cc2)[nH]c(C(F)(F)F)c1Br
Tetranychus cinnabarinus [1]
  mortality at 200 µg/mL: 100%
Mythimna separata [5]
  mortality at 50 µg/mL: 100%
Mythimna separata [6]
  mortality at 100 µg/mL: 100%
Mythimna separata [2]
  mortality at 200 µg/mL: 100%
Tetranychus cinnabarinus [8]
  mortality at 100 µg/mL: 100%
Tetranychus cinnabarinus [3]
  mortality at 200 µg/mL: 100%
Mythimna separata [7]
  mortality at 25 µg/mL: 100%
Tetranychus cinnabarinus [9]
  mortality at 100 µg/mL: 100%
Tetranychus cinnabarinus [10]
  mortality at 100 µg/mL: 100%
Tetranychus cinnabarinus [4]
  mortality at 200 µg/mL: 100%

## CCOCn1c(-c2ccc(Cl)cc2)c(C#N)c(Br)c1C(F)(F)F [CHLORFENAPYR]
Tetranychus cinnabarinus [1]
  mortality at 200 µg/mL: 100%
Mythimna separata [5]
  mortality at 50 µg/mL: 100%
Mythimna separata [6]
  mortality at 100 µg/mL: 100%
Mythimna separata [2]
  mortality at 200 µg/mL: 100%
Tetranychus cinnabarinus [8]
  mortality at 100 µg/mL: 100%
Tetranychus cinnabarinus [3]
  mortality at 200 µg/mL: 100%
Mythimna separata [7]
  mortality at 25 µg/mL: 100%
Tetranychus cinnabarinus [9]
  mortality at 100 µg/mL: 100%
Tetranychus cinnabarinus [10]
  mortality at 100 µg/mL: 100%
Tetranychus cinnabarinus [4]
  mortality at 200 µg/mL: 100%

## N#Cc1c(-c2ccc(Cl)cc2)[nH]c(C(=O)Nc2ccc(C(F)(F)F)cc2)c1Br
Tetranychus cinnabarinus [1]
  mortality at 200 µg/mL: 0%
Mythimna separata [2]
  mortality at 200 µg/mL: 0%
Tetranychus cinnabarinus [3]
  mortality at 200 µg/mL: 0%
Tetranychus cinnabarinus [4]
  mortality at 200 µg/mL: 0%

## N#Cc1cc(C(=O)Nc2ccc(C(F)(F)F)cc2)[nH]c1-c1ccc(Br)cc1
Tetranychus cinnabarinus [1]
  mortality at 200 µg/mL: 0%
Mythimna separata [2]
  mortality at 200 µg/mL: 0%
Tetranychus cinnabarinus [3]
  mortality at 200 µg/mL: 0%
Tetranychus cinnabarinus [4]
  mortality at 200 µg/mL: 0%

## CCOC(=O)c1[nH]c(-c2ccc(Cl)cc2)c(C#N)c1Br
Tetranychus cinnabarinus [1]
  mortality at 200 µg/mL: 76%
Mythimna separata [5]
  mortality at 50 µg/mL: 60%
Mythimna separata [6]
  mortality at 100 µg/mL: 100%
Mythimna separata [2]
  mortality at 200 µg/mL: 100%
Tetranychus cinnabarinus [8]
  mortality at 100 µg/mL: 40%
Tetranychus cinnabarinus [3]
  mortality at 200 µg/mL: 78%
Mythimna separata [7]
  mortality at 25 µg/mL: 0%
Tetranychus cinnabarinus [9]
  mortality at 100 µg/mL: 52%
Tetranychus cinnabarinus [10]
  mortality at 100 µg/mL: 54%
Tetranychus cinnabarinus [4]
  mortality at 200 µg/mL: 81%

## N#Cc1c(-c2ccc(Cl)cc2)[nH]c(C(=O)NCc2ccccc2)c1Br
Tetranychus cinnabarinus [1]
  mortality at 200 µg/mL: 0%
Mythimna separata [2]
  mortality at 200 µg/mL: 0%
Tetranychus cinnabarinus [3]
  mortality at 200 µg/mL: 0%
Tetranychus cinnabarinus [4]
  mortality at 200 µg/mL: 0%

## N#Cc1c(-c2ccc(Cl)cc2)[nH]c(C(=O)OCc2ccccc2)c1Br
Tetranychus cinnabarinus [1]
  mortality at 200 µg/mL: 0%
Mythimna separata [5]
  mortality at 50 µg/mL: 100%
Mythimna separata [6]
  mortality at 100 µg/mL: 100%
Mythimna separata [2]
  mortality at 200 µg/mL: 100%
Tetranychus cinnabarinus [3]
  mortality at 200 µg/mL: 0%
Mythimna separata [7]
  mortality at 25 µg/mL: 0%
Tetranychus cinnabarinus [4]
  mortality at 200 µg/mL: 0%
